# Values quoted from earlier work in article PMC8559537 (ACS infectious diseases, 2021).
# Test system: nanoluciferase (Nluc) expressing C. parvum
# Details: positive control, 100 mg/kg
compound,measurement,value
CCOc1ccc2cc(-c3nn(CC4CCN(C)CC4)c4ncnc(N)c34)ccc2n1 [BKI-1369],effect on infection in the IFN-γ KO mouse model,reduce infection quickly
